Measured values taken from patent publication US6599940B2, “Synthesis of 2-hydroxymethylglutamic acid and congeners thereof” (Georgetown University, priority 2000, dated 2003).

How the values were obtained:
Conditions in all cases: result in words, no method or number given
mGluR3 = mGluR3 (Homo sapiens, UniProt Q14832); test: Agonist activity at the Group 2 receptor mGluR3
mGluR2 = mGluR2 (Homo sapiens, UniProt Q14416); test: Antagonist activity at mGluR2
Group 1 mGluRs = test: Effect on Group 1 mGluRs
Group 3 mGluRs = test: Effect on Group 3 mGluRs

mGluR2, sequence (Q14416 19-872): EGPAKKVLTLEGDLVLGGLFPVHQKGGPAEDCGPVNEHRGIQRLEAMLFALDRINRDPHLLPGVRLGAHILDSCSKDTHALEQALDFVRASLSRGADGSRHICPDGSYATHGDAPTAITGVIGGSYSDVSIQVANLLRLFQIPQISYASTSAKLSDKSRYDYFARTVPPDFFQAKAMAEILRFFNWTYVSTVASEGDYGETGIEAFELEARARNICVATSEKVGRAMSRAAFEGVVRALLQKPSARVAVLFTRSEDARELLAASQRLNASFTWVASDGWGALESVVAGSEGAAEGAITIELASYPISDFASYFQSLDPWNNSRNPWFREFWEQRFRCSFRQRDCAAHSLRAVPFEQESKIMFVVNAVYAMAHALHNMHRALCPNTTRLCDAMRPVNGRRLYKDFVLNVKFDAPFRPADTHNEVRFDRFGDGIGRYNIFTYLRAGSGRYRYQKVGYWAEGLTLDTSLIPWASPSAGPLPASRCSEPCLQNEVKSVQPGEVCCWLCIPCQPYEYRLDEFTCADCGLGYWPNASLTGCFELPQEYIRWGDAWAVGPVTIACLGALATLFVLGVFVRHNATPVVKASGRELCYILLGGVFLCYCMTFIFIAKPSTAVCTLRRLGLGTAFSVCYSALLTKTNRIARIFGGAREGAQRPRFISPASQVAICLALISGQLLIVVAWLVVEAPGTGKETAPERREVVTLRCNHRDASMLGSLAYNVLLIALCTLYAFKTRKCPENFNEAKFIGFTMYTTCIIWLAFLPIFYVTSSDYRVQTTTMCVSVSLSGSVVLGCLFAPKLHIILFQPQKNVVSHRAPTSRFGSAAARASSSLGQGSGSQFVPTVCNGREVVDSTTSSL
mGluR3, sequence (Q14832 23-879): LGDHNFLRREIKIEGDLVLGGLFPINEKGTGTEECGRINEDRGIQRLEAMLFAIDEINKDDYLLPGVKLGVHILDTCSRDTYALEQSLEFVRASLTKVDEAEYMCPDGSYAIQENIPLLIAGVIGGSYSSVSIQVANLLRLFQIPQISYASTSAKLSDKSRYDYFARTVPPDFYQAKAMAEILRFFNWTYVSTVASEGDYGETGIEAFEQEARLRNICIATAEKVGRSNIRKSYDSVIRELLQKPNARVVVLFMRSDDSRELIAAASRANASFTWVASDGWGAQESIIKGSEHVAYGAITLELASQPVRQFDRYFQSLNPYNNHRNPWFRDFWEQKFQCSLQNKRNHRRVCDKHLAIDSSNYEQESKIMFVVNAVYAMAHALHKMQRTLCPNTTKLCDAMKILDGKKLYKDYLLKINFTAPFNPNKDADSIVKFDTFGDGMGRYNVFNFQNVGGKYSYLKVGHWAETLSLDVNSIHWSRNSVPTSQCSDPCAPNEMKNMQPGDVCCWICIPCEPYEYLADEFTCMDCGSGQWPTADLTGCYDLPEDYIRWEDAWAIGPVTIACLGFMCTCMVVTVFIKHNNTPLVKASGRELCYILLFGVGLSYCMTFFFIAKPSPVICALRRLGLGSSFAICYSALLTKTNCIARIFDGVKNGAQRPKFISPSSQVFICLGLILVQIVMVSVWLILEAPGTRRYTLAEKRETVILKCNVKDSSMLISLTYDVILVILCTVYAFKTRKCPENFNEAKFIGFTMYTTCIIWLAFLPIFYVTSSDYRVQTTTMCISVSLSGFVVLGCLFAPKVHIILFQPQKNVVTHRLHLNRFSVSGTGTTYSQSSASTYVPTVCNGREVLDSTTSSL

activity at the Group 2 receptor mGluR3 (mGluR3): relatively potent agonist | activity at mGluR2 (mGluR2): weak antagonist
Structure (SMILES): N[C@@](CO)(CCC(=O)O)C(=O)O [Compound 1, (R)-2(Hydroxymethyl)glutamic acid]
effect on the Group 1 mGluRs (Group 1 mGluRs): little or no effect | effect on the Group 3 mGluRs (Group 3 mGluRs): little or no effect
